This test concerns AIM+ and AIM− CD4+ T cells from peptide-expanded PBMCs. Briefly: TCRβ CDR3 sequencing (immunoSEQ) of sorted AIM+ and AIM− CD4+ T cells.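 On all read-outs here: genomic DNA from sorted cells as template, amplification bias-controlled two-step multiplex PCR, APOB6 pool at 10 µg/ml per peptide, CD40 blocking antibody added before restimulation.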 Format: cell-based, human. The following applies: for Log10 Odds Ratio: AIM+ vs AIM−; for No. of clone-specific productive templates, AIM+ CD4+ T (Total 16700) / No. of clone-specific productive templates, AIM− CD4+ T (Total 21770) / No. of clone-specific productive templates, AIM+ CD4+ T (Total 34927) / No. of clone-specific productive templates, AIM− CD4+ T (Total 45364) / No. of clone-specific productive templates, AIM+ CD4+ T (Total 21697) / No. of clone-specific productive templates, AIM− CD4+ T (Total 49956) / No. of clone-specific productive templates, AIM+ CD4+ T (Total 25796) / No. of clone-specific productive templates, AIM− CD4+ T (Total 25928) / No. of clone-specific productive templates, AIM+ CD4+ T (Total 31354) / No. of clone-specific productive templates, AIM− CD4+ T (Total 48987) / No. of clone-specific productive templates, AIM+ CD4+ T (Total 18591) / No. of clone-specific productive templates, AIM− CD4+ T (Total 7206): PBMCs expanded 14 days and restimulated 24 h with APOB6.

Description: To examine the clonotypic identities of autoreactive CD4^+ T cells, the hypervariable TCRβ DR3 region was sequenced using a DNA-based sequencing technique^42 (Adaptive Biotechnologies), which have been used to profile clonal populations of other self-antigen specific T cells^43. PBMCs from six HLA-typed donors (demographics and HLA-II alleles in Tables 5, 6) were expanded (14-days) and restimulated (24 h) with the APOB6 pool. To isolate viable responder and non-responder CD4^+ T cells from the same pool of stimulated PBMCs (schematic in FIG. 15A, gating strategy in FIG. 151B), the inventors used the AIM assay protocol (FIGS. 2A to 2D).
As a second control, unexpanded PBMCs (day 0 samples), sorted into naïve, central memory (TCM) and effector memory (TEM) CD4^+ T cells, were used (gating strategy in FIG. 15C). This allowed tracing the APOB6-specific AIM^+ T cell clones in naïve and memory T cell lineages. Genomic DNA, isolated from sorted AIM^− and AIM^+ Day 14 samples and naïve, TCM and TEM Day 0 samples from six donors, was used as the starting material for TCRVβ sequencing (schematic in FIG. 15A) using an optimized two-step, amplification bias-controlled multiplex-PCR-based approach^42,44 (immunoSEQ Human TCRB Assay, Adaptive Biotechnologies).
For isolation of APOB epitope-specific CD4^+ T cells, PBMCs were expanded with the APOB6pool (10 μg/ml per peptide). On Day 14, cultured cells were washed and re-stimulated with APOB6 (10 μg/ml) for 24 h (AIM assay protocol). 1 μg/ml of CD40 blocking antibody was added 15 min before stimulation. At the end of the stimulation period, cells were washed with FACS buffer (PBS w/o Ca/Mg, 2% FCS). Day 14 (APOB6 expanded and restimulated) and Day 0 (ex vivo samples with no in vitro stimulation) PBMC samples from six donors were resuspended in a staining master mix containing anti-human Fc-Block (Biolegend), fixable viability dye and antibodies against T cell and non-T cell (Dump) surface markers, activation markers and memory markers (antibody details in Table 4). Viability dye was used at 1:1000 dilution, antibodies were used at a final dilution of 1:100 (activation markers) and 1:200 (other extracellular markers). […] Gates were set based on unstimulated and PHA-L stimulated negative and positive controls, respectively. Antigen-specific AIM^+ and non-specific control AIM^− CD4^+ T cells from Day 14 samples and naïve (CD45RA^+CCR7^+), central memory (CD45RA^−CCR7^+, TCM) and effector memory (CD45RA^−CCR7^−, TEM) CD4^+ T cells from Day 0 PBMCs were sorted into HEPES-containing buffer (PBS with 2% FBS and 0.025 M HEPES) using BD FACSAria flow cytometry sorters. Acquired data was analyzed with FlowJo software.
Genomic DNA was extracted from sorted cells using QIAamp DNA Micro Kit (QIAGEN) and sent to Adaptive Biotechnologies for survey-level TCRβ sequencing (depth ˜60,000 reads) using their established immunoSEQ platform^7. Briefly, highly variable CDR3 regions on somatically rearranged human TCRβ chains were amplified with a two-step multiplex PCR approach using optimized set of primers that target the VDJ region spanning each unique CDR3B. A synthetic repertoire containing all possible V/J templates is used as a built-in control to quantify and correct PCR amplification biases. Processing of raw Illumina sequence reads, filtering, demultiplexing, clustering and mapping of CDR3 sequences and annotation of VDJ genes using IMGT database sequences were performed at Adaptive Biotechnologies and made available for download and analysis.

With “CASIRPGLNYGYTF: TCRβ CDR3 clone, TCRBV06-05+TCRBJ01-02, Donor 3”, where the note is “Donor 3”, the “Log10 Odds Ratio” value is given as 1.08; the “No. of clone-specific productive templates, AIM+ CD4+ T (Total 16700)” value turned out to be 436; the “No. of clone-specific productive templates, AIM− CD4+ T (Total 21770)” value was found to be 48.

In the case of “CASRETGGAGELFF: TCRβ CDR3 clone, TCRBV06-05+TCRBJ02-02, Donor 6”, under “Donor 6”, the “Log10 Odds Ratio” value was 2.71; the “No. of clone-specific productive templates, AIM+ CD4+ T (Total 34927)” value is on record as 393; the “No. of clone-specific productive templates, AIM− CD4+ T (Total 45364)” value is listed as 1.

As for “CASRGQRDTGELFF: TCRβ CDR3 clone, TCRBV19-01+TCRBJ02-02, Donor 1”, where the note is “Donor 1”, the “Log10 Odds Ratio” value is recorded as 2.63; the “No. of clone-specific productive templates, AIM+ CD4+ T (Total 21697)” value came out at 367; the “No. of clone-specific productive templates, AIM− CD4+ T (Total 49956)” value was determined as 2.

Take “CASRKQGLGYTEAFF: TCRβ CDR3 clone, TCRBV02-01+TCRBJ01-01, Donor 4”: for the setting “Donor 4”, the “Log10 Odds Ratio” value is 2.45; the “No. of clone-specific productive templates, AIM+ CD4+ T (Total 25796)” value is given as 544; the “No. of clone-specific productive templates, AIM− CD4+ T (Total 25928)” value came to 2.

As for “CASRKTGSLYGYTF: TCRβ CDR3 clone, TCRBV27-01+TCRBJ01-02, Donor 5”, under “Donor 5”, the “Log10 Odds Ratio” value was 11.80; the “No. of clone-specific productive templates, AIM+ CD4+ T (Total 31354)” value is 411; the “No. of clone-specific productive templates, AIM− CD4+ T (Total 48987)” value was 0.

“CASRTIGQGSFNYGYTF: TCRβ CDR3 clone, TCRBV27-01+TCRBJ01-02, Donor 1”: under “Donor 1”, the “Log10 Odds Ratio” value came to 2.78; the “No. of clone-specific productive templates, AIM+ CD4+ T (Total 21697)” value came to 257; the “No. of clone-specific productive templates, AIM− CD4+ T (Total 49956)” value is 1.

For the substance “CASRTTTGFLSPLHF: TCRβ CDR3 clone, TCRBV27-01+TCRBJ01-06, Donor 3”, for the setting “Donor 3”, the “Log10 Odds Ratio” value is given as 1.86; the “No. of clone-specific productive templates, AIM+ CD4+ T (Total 16700)” value amounted to 273; the “No. of clone-specific productive templates, AIM− CD4+ T (Total 21770)” value worked out at 5.

In the case of “CASSAMVEQPQHF: TCRβ CDR3 clone, TCRBV06-X+TCRBJ01-05, Donor 4”, for the setting “Donor 4”, the “Log10 Odds Ratio” value is reported as 0.55; the “No. of clone-specific productive templates, AIM+ CD4+ T (Total 25796)” value amounted to 1709; the “No. of clone-specific productive templates, AIM− CD4+ T (Total 25928)” value stood at 503.

As for “CASSDDLAANVLTF: TCRβ CDR3 clone, TCRBV13-01+TCRBJ02-06, Donor 2”, for the setting “Donor 2”, the “Log10 Odds Ratio” value was found to be 1.61; the “No. of clone-specific productive templates, AIM+ CD4+ T (Total 18591)” value is listed as 411; the “No. of clone-specific productive templates, AIM− CD4+ T (Total 7206)” value is given as 4.

In the case of “CASSELGLNTDTQYF: TCRβ CDR3 clone, TCRBV06-01+TCRBJ02-03, Donor 4”, for the setting “Donor 4”, the “Log10 Odds Ratio” value is reported as 1.11; the “No. of clone-specific productive templates, AIM+ CD4+ T (Total 25796)” value is 2236; the “No. of clone-specific productive templates, AIM− CD4+ T (Total 25928)” value is recorded as 190.

Turning to “CASSELGTRPNEQFF: TCRβ CDR3 clone, TCRBV10-01+TCRBJ02-01, Donor 4”, under “Donor 4”, the “Log10 Odds Ratio” value was 2.76; the “No. of clone-specific productive templates, AIM+ CD4+ T (Total 25796)” value is on record as 558; the “No. of clone-specific productive templates, AIM− CD4+ T (Total 25928)” value is reported as 1.

In the case of “CASSEMGLNTDTQYF: TCRβ CDR3 clone, TCRBV06-01+TCRBJ02-03, Donor 4”, for the setting “Donor 4”, the “Log10 Odds Ratio” value turned out to be 0.45; the “No. of clone-specific productive templates, AIM+ CD4+ T (Total 25796)” value was 1601; the “No. of clone-specific productive templates, AIM− CD4+ T (Total 25928)” value was determined as 601.

For “CASSFTYDEQFF: TCRβ CDR3 clone, TCRBV07-09+TCRBJ02-01, Donor 5”, under “Donor 5”, the “Log10 Odds Ratio” value turned out to be 1.66; the “No. of clone-specific productive templates, AIM+ CD4+ T (Total 31354)” value came out at 457; the “No. of clone-specific productive templates, AIM− CD4+ T (Total 48987)” value came out at 16.

As to “CASSFVDSPESYEQYF: TCRβ CDR3 clone, TCRBV12-X+TCRBJ02-07, Donor 1”, under “Donor 1”, the “Log10 Odds Ratio” value came to 2.01; the “No. of clone-specific productive templates, AIM+ CD4+ T (Total 21697)” value is listed as 486; the “No. of clone-specific productive templates, AIM− CD4+ T (Total 49956)” value is given as 11.

As to “CASSIPQGSGSPLHF: TCRβ CDR3 clone, TCRBV05-06+TCRBJ01-06, Donor 6; top-ranked APOB6-specific rearrangement”, under “Donor 6”, the “Log10 Odds Ratio” value is 2.41; the “No. of clone-specific productive templates, AIM+ CD4+ T (Total 34927)” value is recorded as 9283; the “No. of clone-specific productive templates, AIM− CD4+ T (Total 45364)” value came out at 63.

Regarding “CASSIRPNDEQFF: TCRβ CDR3 clone, TCRBV09-01+TCRBJ02-01, Donor 1”, under “Donor 1”, the “Log10 Odds Ratio” value worked out at 2.93; the “No. of clone-specific productive templates, AIM+ CD4+ T (Total 21697)” value turned out to be 366; the “No. of clone-specific productive templates, AIM− CD4+ T (Total 49956)” value worked out at 1.

Consider “CASSISLALIYEQYF: TCRβ CDR3 clone, TCRBV19-01+TCRBJ02-07, Donor 6”, for which, where the note is “Donor 6”, the “Log10 Odds Ratio” value is reported as 2.09; the “No. of clone-specific productive templates, AIM+ CD4+ T (Total 34927)” value was found to be 371; the “No. of clone-specific productive templates, AIM− CD4+ T (Total 45364)” value is on record as 4.

Turning to “CASSKVNEKLFF: TCRβ CDR3 clone, TCRBV03-01/03-02+TCRBJ01-04, Donor 2”, under “Donor 2”, the “Log10 Odds Ratio” value is 1.19; the “No. of clone-specific productive templates, AIM+ CD4+ T (Total 18591)” value came to 361; the “No. of clone-specific productive templates, AIM− CD4+ T (Total 7206)” value came to 9.

On to “CASSLAGTGTNEQFF: TCRβ CDR3 clone, TCRBV05-01+TCRBJ02-01, Donor 1”, for which, for the setting “Donor 1”, the “Log10 Odds Ratio” value was 2.97; the “No. of clone-specific productive templates, AIM+ CD4+ T (Total 21697)” value is recorded as 396; the “No. of clone-specific productive templates, AIM− CD4+ T (Total 49956)” value worked out at 1.

Consider “CASSLALGTGDTEAFF: TCRβ CDR3 clone, TCRBV05-01+TCRBJ01-01, Donor 1”, for which, for the setting “Donor 1”, the “Log10 Odds Ratio” value worked out at 2.98; the “No. of clone-specific productive templates, AIM+ CD4+ T (Total 21697)” value came out at 410; the “No. of clone-specific productive templates, AIM− CD4+ T (Total 49956)” value is given as 1.

“CASSLERGAYGYTF: TCRβ CDR3 clone, TCRBV07-02+TCRBJ01-02, Donor 6”: under “Donor 6”, the “Log10 Odds Ratio” value turned out to be 2.81; the “No. of clone-specific productive templates, AIM+ CD4+ T (Total 34927)” value was found to be 963; the “No. of clone-specific productive templates, AIM− CD4+ T (Total 45364)” value is recorded as 2.

For the substance “CASSLPRDRDYGYTF: TCRβ CDR3 clone, TCRBV06-02+TCRBJ01-02, Donor 3”, where the note is “Donor 3”, the “Log10 Odds Ratio” value is given as 2.55; the “No. of clone-specific productive templates, AIM+ CD4+ T (Total 16700)” value worked out at 269; the “No. of clone-specific productive templates, AIM− CD4+ T (Total 21770)” value is 1.

“CASSLRTGIINEQFF: TCRβ CDR3 clone, TCRBV05-01+TCRBJ02-01, Donor 5”: under “Donor 5”, the “Log10 Odds Ratio” value amounted to 11.77; the “No. of clone-specific productive templates, AIM+ CD4+ T (Total 31354)” value is 383; the “No. of clone-specific productive templates, AIM− CD4+ T (Total 48987)” value stood at 0.

In the case of “CASSLTRIPEQYF: TCRβ CDR3 clone, TCRBV28-01+TCRBJ02-07, Donor 1”, under “Donor 1”, the “Log10 Odds Ratio” value was found to be 0.90; the “No. of clone-specific productive templates, AIM+ CD4+ T (Total 21697)” value amounted to 459; the “No. of clone-specific productive templates, AIM− CD4+ T (Total 49956)” value is listed as 136.

On to “CASSLYAGQNTEAFF: TCRβ CDR3 clone, TCRBV07-02+TCRBJ01-01, Donor 6”, for which, under “Donor 6”, the “Log10 Odds Ratio” value is on record as 2.35; the “No. of clone-specific productive templates, AIM+ CD4+ T (Total 34927)” value was found to be 344; the “No. of clone-specific productive templates, AIM− CD4+ T (Total 45364)” value was found to be 2.

In the case of “CASSPADREETQYF: TCRβ CDR3 clone, TCRBV18-01+TCRBJ02-05, Donor 3”, where the note is “Donor 3”, the “Log10 Odds Ratio” value was determined as 0.99; the “No. of clone-specific productive templates, AIM+ CD4+ T (Total 16700)” value was found to be 410; the “No. of clone-specific productive templates, AIM− CD4+ T (Total 21770)” value is 56.

The values above are taken from patent US20260000710A1, “Novel Treatments for Cardiovascular Related Disease” (priority 2022, published 2026).
